One data set deals with blood pressure. The data set can be described thus: Hemodynamic responses in the anesthetized rat. In kind it is in vivo. Conditions: for hemodynamic liabilities (summary): rat, in vivo. The text has this: As a key safety issue for cationic compounds is reduction in blood pressure shortly after administration. To address this hemodynamic issue, a medicinal chemistry strategy with literature precedence of introducing carboxylic acid functionality was applied to the salicylamide series of compounds. […] Surgically prepared animals were purchased from Charles River Laboratories, Raleigh, N.C. Animals were anesthetized on the day of experiment with isoflurane (1.8-4%). Blood pressure and heart rate data were collected on a Grass Polygraph recorder. The test articles, vehicle or protamine dosing preparations were administered once to each rat by a 10 minute intravenous infusion three minutes following a single intravenous injection of heparin (50 U/kg). Each animal received a dose volume of 2.0 mL/kg. Blood pressure was recorded prior to treatment for approximately 1 minute and immediately following heparin, immediately following vehicle, test articles or protamine and at 5, 15, 30, and 60 minutes following dosing. The doses of test agent were either 8 mg/kg or 16 mg/kg. The differences in hemodynamic effect at 16 mg/kg were especially profound (FIG. 5).

For data set [1], the system named is enoxaparin. The data set can be described thus: In vivo neutralization of enoxaparin in the rat. Conditions: for in vivo efficacy versus LMWH by anti-factor Xa activity (summary): compared with protamine; for neutralization of enoxaparin (aPTT and factor Xa assays, words): rat, enoxaparin 2 mg/kg IV. On the procedure: Compounds were tested for their ability to neutralize enoxaparin coagulation inhibition in rats. Male Sprague-Dawley rats were used in this study (Charles River Laboratories). They were ten-weeks-old at the start of the study and their weights ranged from 319-362 g. Enoxaparin (2 mg/kg) was administered by IV injection to groups of six rats. After 3 min, saline, protamine or a test compound was administered by IV injection. Blood was collected before dosing with enoxaparin, and at 1, 3, 10, 30 and 60 min after dosing with the standard and test compounds. All treatments were dosed in a volume of 1 mL/kg. Blood was collected via the orbital sinus from three rats per group. At each time point, 1 mL of blood was collected from each animal into a single tube. The blood was analyzed using an AMEX Destiny Plus Coagulation Analyzer for activated partial thromboplastin time (APTT) and anti-Factor Xa (low-molecular weight).

The nature of data set [2]: Coagulation properties via ROTEM. Conditions: at fully efficacious doses.
The test system of data set [3] is isolated human erythrocytes. The data set can be described thus: in vitro. In kind it is cell-based. The method in brief:
(§1)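 Test agent was serially diluted two-fold over 0.48–1000 µg/ml and incubated for 1 h at 37 °C with shaking, using erythrocytes from pooled human blood diluted in Tris-buffered saline pH 7.4 (0.22% stock). Hemolysis was measured as supernatant absorbance at 405 nm. A four-parameter logistic equation gave EC50, and melittin served as the positive control.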

The test system of data set [4] is fondaparinux. The data set can be described thus: In vivo neutralization of fondaparinux in the rat. Conditions: for reduction of Factor Xa (anti-factor Xa) levels after fondaparinux: fondaparinux 0.5 mg/kg IV, test agent 2 and 5 mg/kg IV. On the procedure:
Compounds were selected to test fondaparinux neutralization in vivo. Rats were pre-treated with fondaparinux administered by IV injection at 0.5 mg/kg. The rats were then treated with a single IV injection of saline, protamine or the PMX compound. Blood was collected via the orbital sinus from three rats per group at the following time points: pre-dose, 1, 3, 10, 30 and 60 min. Plasma samples were prepared for analysis of anti-factor Xa activity using an AMEX Destiny Plus Coagulation Analyzer.

Data set [5] relates to fondaparinux. In words: FXa amidolytic assay (Example 10), fondaparinux. Conditions: for EC50: read-out: Fondap FXa EC50, fondaparinux 0.02 μg/mL, human antithrombin, bovine Factor Xa.
Method: (§3) Two μl of test agent are added (range between 0.01 and 23 ug/ml) and incubated for 5 minutes at 23° C. Bovine Factor Xa was added to a final concentration of 0.636 nkat/mL and incubated for a further 10 minutes at 23° C.
Data set [6] relates to enoxaparin. In words: Enoxaparin-extended bleeding times, rat tail transection model. Conditions: for neutralization of prolonged bleeding times: rat, enoxaparin 2 mg/kg IV. The data set is classed as in vivo. How it is done:
Studies have now been done to examine effects on extended bleeding times caused by enoxaparin treatment. Male Sprague Dawley rats (Charles River) were administered 2 mg/kg enoxaparin by IV injection in the tail vein, followed 3 minutes later by test agent (IV, tail vein) at 2 and 5 mg/kg doses. Tails were then rapidly transected and bleeding time onto an absorbant pad was determined. Enoxaparin alone (no antagonist) extends bleeding time from 11 to 24 seconds.

Data set [7] relates to enoxaparin. In words: FXa amidolytic assay (Example 10), enoxaparin. Conditions: read-out: Enox FXa EC50; enoxaparin 0.1 ug/ml; human antithrombin, bovine Factor Xa.
Method: as §3
The nature of data set [8]: Cytotoxicity colorimetric assay, HepG2. The data set is classed as cell-based, human. Set-up: Cytotoxicity HepG2, percent printed in parentheses after the concentration: concentration or dose not given beside the values. Conditions: human, HepG2 cells, one hour in serum-free media. The method, boiled down:
(§2)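 HepG2 cells (3×10^4/well, MEM + 10% FBS) and NIH/3T3 cells (2×10^4/well, DMEM + 10% BCS) were exposed to compound for 1 h in serum-free medium. Viability read by tetrazolium-to-formazan bioreduction after return to serum medium; EC50 from a four-parameter logistic fit.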

The next data set concerns HepG2 cells. In words: Cytotoxicity colorimetric assay, HepG2. In kind it is cell-based, human. More on the design: Cytotoxicity HepG2, percent printed in parentheses after the concentration: concentration or dose not given beside the values. Conditions: for Cytotoxicity HepG2, percent printed in parentheses after the concentration: at the concentration given; for Cytotoxicity HepG2 EC50: one hour in serum-free media. The method, boiled down: as §2

Data set [9] in a line: Cytotoxicity colorimetric assay, NIH/3T3. The data set is classed as cell-based, mouse. Conditions: mouse, NIH/3T3 cells, one hour in serum-free media. The method in brief: as §2
Another data set relates to NIH/3T3 cells. In words: Cytotoxicity colorimetric assay, NIH/3T3. In kind it is cell-based, mouse. Conditions: for Cytotoxicity 3T3, percent printed in parentheses after the concentration: at the concentration given; for Cytotoxicity 3T3 EC50: one hour in serum-free media. The method, boiled down:
as §2

Another data set concerns tinzaparin. In words: FXa amidolytic assay (Example 10), tinzaparin. Conditions: read-out: Tinzap FXa EC50; tinzaparin 0.1 ug/ml; human antithrombin, bovine Factor Xa.
A further data set relates to Unfractionated heparin. In words: aPTT clotting assay, UFH 0.4 U/mL in plasma (Example 10). The data set is classed as biochemical. Conditions: unfractionated heparin 0.4 U/mL in plasma; aPTT clotting. On the procedure:
aPTT clotting Assay: Unfractionated heparin was mixed with plasma at a final concentration of 0.4 U/mL (or concentration which increases aPTT time to between 120 and 300 seconds). […] The ACL Elite Hemostasis analyzer (Beckman Coulter™) was used to add aPTT reagent (HemosIL SynthASil) to supplemented plasma. Clotting was initiated by addition of CaCl2 and time to clot was recorded.

The next data set concerns UFH. In words: FXa amidolytic assay (Example 10), UFH. Conditions: read-out: Heparin FXa uM EC50; UFH 0.03 units/mL; human antithrombin, bovine Factor Xa.
The nature of the next data set: in vitro. In kind it is cell-based, human. Conditions: human, pH 7.4. The method in brief:
as §1

Four molecules from patent US20110178104A1, “Anti-Heparin Compounds” (POLYMEDIX INC., priority 2010, published 2011) can be followed below.

In brackets after ≈: the same amount, converted by molar mass. Several values for one entry are separate records, joined by “and”; a condition that tells them apart may be missing. Identical values can stand only once.

Method for tinzaparin: as §3

In the case of `COc1cc(OC)c(C(=O)N[C@H]2CC[C@H](NC(=O)c3cc(C(=O)NCCN(C)C)c(OCCCCCNC(=N)N)cc3OCCCCCNC(=N)N)CC2)cc1C(=O)N[C@H]1CC[C@H](NC(=O)c2cc(C(=O)NCCN(C)C)c(OCCCCCNC(=N)N)cc2OCCCCCNC(=N)N)CC1` [Compound B], the “hemodynamic liabilities (summary)” value in the data set with blood pressure is listed as “reduced hemodynamic liabilities”. Further, the “in vivo efficacy versus LMWH by anti-factor Xa activity (summary)” value in the data set on enoxaparin [1] was “superior to protamine”. In addition, in data set [2], the “coagulation properties via ROTEM” value is “normal coagulation properties at fully efficacious doses”. Further, the “hemolysis and cytotoxicity (summary)” value in data set [3] was “non-hemolytic and low cytotoxicity”. In the data set on fondaparinux [4], the “reduction of Factor Xa (anti-factor Xa) levels after fondaparinux” value (from here on “reduction of Factor Xa”) was “lack of effectiveness”. Also, the “Potent LMWH-antagonists with superior anti-fondaparinux activity (summary)” value (“Potent LMWH-antagonists” for short) in the data set with fondaparinux [5] is “superior anti-fondaparinux activity”. Moreover, the “neutralization of prolonged bleeding times” value in the data set on enoxaparin [6] (test agent 5 mg/kg IV) is given as “not completely reverse”.
Broadly, the EC50 is the concentration at which the effect is half-maximal. For the molecule `COc1ccc(NC(=O)[C@H](CCCNC(=N)N)NC(=O)c2cc(NC(=O)[C@H](CCCNC(=N)N)NC(=O)c3cc(NC(=O)[C@H](CCCNC(=N)N)NC(=O)c4cc(NC(=O)[C@@H](N)CCCNC(=N)N)ccc4OC)ccc3OC)ccc2OCC(=O)O)cc1C(=O)N[C@@H](Cc1c[nH]c2ccccc12)C(N)=O` [Compound 311], the 50% effective concentration (EC50) in the data set with enoxaparin [7] was 101 nM and 140 nM; in the data set on fondaparinux [5] it was 90 nM and 154 nM; with tinzaparin, 108 nM and 150 nM; in the data set on Unfractionated heparin, 2540 nM and 1780 nM; in the data set on UFH, 0.245 µM. Besides, the EC50 at 1 h in data set [8] and in data set [9] was 1000 µg/mL (≈ 681 µM) throughout. Also, the “Cytotoxicity HepG2, percent printed in parentheses after the concentration” value with HepG2 cells was 50%. Moreover, in the data set with HepG2 cells, the “Cytotoxicity HepG2 EC50” value is more than 1000 µg/mL. Moreover, the “Cytotoxicity 3T3, percent printed in parentheses after the concentration” value in the data set with NIH/3T3 cells was found to be 50%. Besides, the “Cytotoxicity 3T3 EC50” value in the data set on NIH/3T3 cells was more than 1000 µg/mL. The “neutralization of enoxaparin (aPTT and factor Xa assays, words)” value with enoxaparin [1] is on record as “marginally more efficacious than the 3-Arg derivative”. The “coagulation properties via ROTEM” value in data set [2] is given as “normal coagulation properties at fully efficacious doses”. Also, the “hemolysis and cytotoxicity (summary)” value in data set [3] was “non-hemolytic and low cytotoxicity”. The “reduction of Factor Xa” value in the data set with fondaparinux [4] is listed as “markedly reduced”. Moreover, the “in vivo efficacy versus fondaparinux (summary)” value in the data set on fondaparinux [4] is on record as “in vivo efficacy versus fondaparinux”. Besides, the “Potent LMWH-antagonists” value in the data set on fondaparinux [5] is listed as “superior anti-fondaparinux activity”.
Consider `COc1ccc(NC(=O)[C@H](CCCNC(=N)N)NC(=O)c2cc(NC(=O)[C@H](CCCNC(=N)N)NC(=O)c3cc(NC(=O)[C@H](CCCNC(=N)N)NC(=O)c4cc(NC(=O)[C@@H](N)CCCNC(=N)N)ccc4OC)ccc3OCC(=O)O)ccc2OC)cc1C(=O)N[C@@H](Cc1c[nH]c2ccccc12)C(N)=O` [Compound 313], for which the EC50 in the data set with enoxaparin [7] is 107 nM; in data set [3] (Homo sapiens, Erythrocyte, 1 h, human RBC, 1 hour at 37° C., read-out: Hemolysis EC50) it was approximately 100 µg/mL (≈ 68.1 µM); in the data set on fondaparinux [5], 117 nM; in the data set with tinzaparin, 115 nM; in the data set on Unfractionated heparin, 3810 nM; in the data set with UFH, 0.196 µM. In “in vitro”, this molecule returned a hemolysis at 1 h of 20%.
Regarding `COc1ccc(NC(=O)[C@@H](CCCNC(=N)N)NC(=O)c2cc(NC(=O)[C@@H](CCCNC(=N)N)NC(=O)c3cc(NC(=O)[C@@H](CCCNC(=N)N)NC(=O)c4cc(NC(=O)[C@H](N)CCCNC(=N)N)ccc4OC)ccc3OC)ccc2OCC(=O)O)cc1C(=O)N[C@H](Cc1c[nH]c2ccccc12)C(N)=O` [Compound 305], the EC50 in the data set on enoxaparin [7] was 186 nM. In addition, in data set [8], the half-maximal effective concentration (EC50) at 1 h was 1000 µg/mL (≈ 681 µM). Moreover, in the data set on HepG2 cells, the “Cytotoxicity HepG2, percent printed in parentheses after the concentration” value is reported as 50% and the “Cytotoxicity HepG2 EC50” value was more than 1000 µg/mL. The same molecule displayed an EC50 at 1 h in data set [9] of 1000 µg/mL (≈ 681 µM). In the data set on NIH/3T3 cells, the “Cytotoxicity 3T3, percent printed in parentheses after the concentration” value is listed as 50% and the “Cytotoxicity 3T3 EC50” value is more than 1000 µg/mL. For the same molecule, in the data set on blood pressure (anesthetized rat, 8 or 16 mg/kg 10 minute IV infusion after heparin 50 U/kg), the hemodynamic response profile entry is “superior to protamine”. For the same molecule, the “hemodynamic liabilities (summary)” value in the data set with blood pressure is listed as “reduced hemodynamic liabilities”. In the data set with enoxaparin [1], the “in vivo efficacy versus LMWH by anti-factor Xa activity (summary)” value is “superior to protamine”; the “neutralization of enoxaparin (aPTT and factor Xa assays, words)” value was “marginally more efficacious than the 3-Arg derivative”. Besides, the “coagulation properties via ROTEM” value in [2] is on record as “normal coagulation properties at fully efficacious doses”. In addition, the “hemolysis and cytotoxicity (summary)” value in [3] is “non-hemolytic and low cytotoxicity”. Moreover, in the data set on fondaparinux [4], the “reduction of Factor Xa” value is given as “effective in reducing Factor Xa activity” and the “in vivo efficacy versus fondaparinux (summary)” value is given as “in vivo efficacy versus fondaparinux”. The “Potent LMWH-antagonists” value with fondaparinux [5] is “superior anti-fondaparinux activity”. Besides, the EC50 with UFH came to 0.343 µM. Also, the “in vivo efficacy versus LMWH by bleeding time (summary)” value in the data set on enoxaparin [6] (compared with protamine) is on record as “superior to protamine”. In addition, the “neutralization of prolonged bleeding times” value in the data set on enoxaparin [6] (test agent 2 mg/kg IV) is listed as “completely neutralized”.
